Data published in PubChem BioAssay (NCI).
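Each compound was tested at five concentrations against cells in 96-well plates for 48 hours. Here, GI50 denotes the concentration required for 50% inhibition of growth. TGI marks complete inhibition of growth.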

What was measured:
Test in all cases: NCI-60 cell line screen, 48 h
HCT-116 colon = system: HCT-116 colon
SK-MEL-2 melanoma = system: SK-MEL-2 melanoma
SF-295 CNS = system: SF-295 CNS
HOP-92 NSCLC = system: HOP-92 NSCLC
SN12C renal = system: SN12C renal
U251 CNS = system: U251 CNS
OVCAR-3 ovarian = system: OVCAR-3 ovarian
786-0 renal = system: 786-0 renal
MALME-3M melanoma = system: MALME-3M melanoma
LOX IMVI melanoma = system: LOX IMVI melanoma

Structure (SMILES) | GI50 (HCT-116 colon) [µM] | TGI (HCT-116 colon) [µM] | GI50 (SK-MEL-2 melanoma) [µM] | TGI (SK-MEL-2 melanoma) [µM] | GI50 (SF-295 CNS) [µM] | TGI (SF-295 CNS) [µM] | GI50 (HOP-92 NSCLC) [µM] | TGI (HOP-92 NSCLC) [µM] | GI50 (SN12C renal) [µM] | TGI (SN12C renal) [µM] | GI50 (U251 CNS) [µM] | TGI (U251 CNS) [µM] | GI50 (OVCAR-3 ovarian) [µM] | TGI (OVCAR-3 ovarian) [µM] | GI50 (786-0 renal) [µM] | TGI (786-0 renal) [µM] | GI50 (MALME-3M melanoma) [µM] | TGI (MALME-3M melanoma) [µM] | GI50 (LOX IMVI melanoma) [µM] | TGI (LOX IMVI melanoma) [µM]
O=P(O)(O)OC1C(OP(=O)(O)O)C(OP(=O)(O)O)C(OP(=O)(O)O)C(OP(=O)(O)O)C1OP(=O)(O)O (centres undefined) | > 2000 | > 2000 | > 2000 | > 2000 | > 2000 | > 2000 | > 100 | > 1880 | > 2000 | > 2000 | > 2000 | > 2000 | > 2000 | > 2000 | > 2000 | > 2000 | > 2000 | > 2000 | > 2000 | > 2000
COc1c2occc2c(OC)c2c(=O)c(S(=O)(=O)NC(=O)Nc3ccc(Cl)cc3)coc12 | – | > 10 | – | > 10 | – | > 10 | – | > 10 | – | > 10 | – | > 10 | – | > 10 | – | > 10 | – | > 10 | – | > 10
CCC12C=CCN3CC[C@]4(C(=C(C(=O)OC)[C@@H]1Nc1ncnc5c1ncn5C1OC(COC(C)=O)C(OC(C)=O)C1OC(C)=O)Nc1ccccc14)C32 (some centres undefined) | – | 5.55 | – | 9.36 | – | 9.67 | – | 9.02 | – | 4.45 | – | 4.91 | – | 4.3 | – | 4.01 | – | 15.1 | – | 3.25
Cc1ncc(C(=O)Nc2ccc(CN3CCN(C)CC3)c(C(F)(F)F)c2)cc1C#Cc1c(N)ncc2ccc(C#N)cc12 | 0.24 | 5.94 | 1.74 | 17.5 | > 26.7 | > 50 | 0.075 | 1.25 | 1.16 | 17.9 | 5.8 | 14.4 | 1.57 | 8.54 | 1.19 | 3.06 | 0.0167 | 0.157 | 0.092 | 0.791
CC[C@]1(O)C[C@@H]2CN(Cc3c([nH]c4ccccc34)[C@@](C(=O)OC)(c3cc4c(cc3OC)N(C)[C@H]3[C@@](O)(C(=O)OC)[C@H](OC(C)=O)[C@]5(CC)[C@@H]6C[C@@H]6CN6CC[C@]43[C@@H]65)C2)C1 | 0.0351 | > 4.38 | 0.033 | > 4.38 | 0.137 | > 4.38 | 0.0314 | > 4.38 | 0.232 | > 4.38 | 0.112 | > 4.38 | 0.0162 | – | 0.713 | > 4.38 | 2.6 | > 4.38 | 0.0304 | > 4.38
COc1ccc(C2SC(N)=Nc3c2c(C)nn3C(=O)c2ccncc2)cc1 (centres undefined) | – | > 100 | – | > 100 | – | > 100 | – | > 100 | – | > 100 | – | > 100 | – | > 100 | – | > 100 | – | > 100 | – | > 100
C#Cc1cccc(NC(=O)Nc2ccccc2NC(=O)CCl)c1 | 24.5 | > 82.5 | 22 | 63.9 | 39.4 | > 82.5 | 14.8 | 44 | 15.1 | 33.5 | 15.4 | 33.1 | 13.5 | 25.5 | 29.7 | > 82.5 | 19.5 | 56.7 | 13.3 | 25.6
CCOC(=O)c1cc2c(n1Cc1cccc(OC)c1)-c1oncc1CC2 | 0.47 | 19.9 | 1.11 | > 100 | 0.433 | 49.7 | 10.5 | > 100 | 13.5 | > 100 | 0.909 | > 100 | 0.38 | 2.66 | 4.29 | > 100 | 0.571 | 76.5 | 0.794 | > 100
CCN(CC)CCn1c(=N)n(CC(O)c2ccc(Cl)c(Cl)c2)c2ccccc21 (centres undefined) | 4.47 | 16.4 | 2.93 | 8.32 | 8.87 | 24.1 | 2.73 | 13.1 | 8.79 | 24.2 | 2.82 | 9.04 | 11.5 | 24 | 10.9 | 23.1 | 2.23 | 4.44 | 6.14 | 20.3
COc1ccc(CN(O)C2C(CO)OC(n3cc(I)c(=O)[nH]c3=O)C2O)cc1 (centres undefined) | – | > 100 | – | > 100 | – | > 100 | – | > 100 | – | > 100 | – | > 100 | – | > 100 | – | > 100 | – | > 100 | – | > 100
N#Cc1c(N)nn(C(=O)c2ccc(NC(=O)c3ccccn3)cc2)c1-c1ccc(Cl)cc1 | 3.32 | > 100 | 71.6 | > 100 | 3.06 | 15.7 | 2.31 | 9.5 | 6.42 | > 100 | 2.33 | 5.75 | 3.9 | 24.3 | 2.97 | 8.54 | 2.35 | 6.45 | 5.75 | > 100
N/C(=N\N=C\c1ccc2c(c1)OCO2)NO | – | 59.8 | – | 61.1 | – | > 100 | – | 83.1 | – | > 100 | – | > 100 | – | 59.1 | – | 37.7 | – | 86.8 | – | 82.5
C=CCCc1cc(OC)ccc1CN(C)C(C)(C)CO | – | > 100 | – | > 100 | – | > 100 | – | > 100 | – | > 100 | – | > 100 | – | > 100 | – | > 100 | – | > 100 | – | > 100
COc1ccc(CCNc2nc3ccccc3c3[nH]c4ccccc4c23)cc1OC | 1.71 | 3.52 | 1.98 | 3.77 | 2.55 | 9.02 | 2.43 | 8 | 3.58 | 16.5 | 2.97 | 10.3 | 1.98 | 4.24 | 1.7 | 3.28 | 1.5 | 3.15 | 2.28 | 5.38
